Test [1] has as its system human whole blood TNFα release. Briefly: LPS-stimulation of human whole blood, TNF-α by ELISA. Format: cell-based. The conditions noted are these: inhibitor 2 hrs before LPS 100 ng/ml, 6 hrs, read-out: Inhibitor activity versus human whole blood TNFα release. How it is done: Whole blood was taken by venous puncture using heparinised vacutainers (Becton Dickinson) and diluted in an equal volume of RPMI1640 tissue culture media (Sigma). 100 μl was plated in V-bottomed 96 well tissue culture treated plates. 2 hrs after the addition of the inhibitor in 100 μl of RPMI1640 media, the blood was stimulated with LPS (E coli strain 005:B5, Sigma) at a final concentration of 100 ng/ml and incubated at 37° C. in 5% CO2 for 6 hrs. TNF-α levels were measured from cell-free supernatants by sandwich ELISA (R&D Systems #QTA00B)

Another test has as its system THP-1 TNFα release. The test is described as follows: LPS-stimulation of THP-1 cells, TNF-α by ELISA. Conditions: Homo sapiens, inhibitor 2 hrs before LPS 1 μg/ml, 6 hrs, read-out: Inhibitor activity versus THP-1 TNFα release. The format is cell-based. How it is done:
THP-1 cells were plated in 100 μl at a density of 4×10^4 cells/well in V-bottomed 96 well tissue culture treated plates and incubated at 37° C. in 5% CO2 for 16 hrs. 2 hrs after the addition of the inhibitor in 100 μl of tissue culture media, the cells were stimulated with LPS (E coli strain 005:65, Sigma) at a final concentration of 1 μg/ml and incubated at 37° C. in 5% CO2 for 6 hrs. TNF-α levels were measured from cell-free supernatants by sandwich ELISA (R&D Systems #QTA00B)

Consider `C[C@H](NCc1cccc(-c2cc(C(N)=O)c(NC(N)=O)s2)c1)C(=O)OC1CCCC1` [Example 11, Cyclopentyl N-{3-[4-carbamoyl-5-(carbamoylamino)-2-thienyl]benzyl}-L-alaninate], for which the IC50 (in test [1]; with THP-1 TNFα release) was 500 to 1000 nM throughout.

(Values after patent publication US20110039920A1, “INHIBITORS OF IKK-BETA SERINE-THERONINE PROTEIN KINASE” (CHROMA THERAPEUTICS LTD., priority 2008, published 2011).)
